Data as given in ChEMBL document CHEMBL1201862, “PubChem BioAssay data set” (2004).
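The compound was tested at five concentrations on cells cultured in 96-well plates, with a 48-hour exposure period. GI50: concentration for 50% inhibition of growth.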 The source made the active and inactive calls. No stated cut-off is given here; in the data, active = GI50 up to about 1.1 µM and inactive = higher.

Columns and labels:
Test in all cases: NCI-60 cell line screen, 48 h
A498 = test system: A498
COLO 205 = test system: COLO 205
EKVX = test system: EKVX
HCC 2998 = test system: HCC 2998
OVCAR-3 = test system: OVCAR-3
OVCAR-4 = test system: OVCAR-4
OVCAR-5 = test system: OVCAR-5
OVCAR-8 = test system: OVCAR-8
RPMI-8226 = test system: RPMI-8226
SK-MEL-28 = test system: SK-MEL-28
SK-MEL-5 = test system: SK-MEL-5
SNB-19 = test system: SNB-19
SW-620 = test system: SW-620
U-251 = test system: U-251
UACC-257 = test system: UACC-257
NCI-H226 = test system: NCI-H226

Row | Compound | GI50 (A498) | GI50 (COLO 205) | GI50 (EKVX) | GI50 (HCC 2998) | GI50 (OVCAR-3) | GI50 (OVCAR-4) | GI50 (OVCAR-5) | GI50 (OVCAR-8) | GI50 (RPMI-8226) | GI50 (SK-MEL-28) | GI50 (SK-MEL-5) | GI50 (SNB-19) | GI50 (SW-620) | GI50 (U-251) | GI50 (UACC-257) | GI50 (NCI-H226)
1 | Nc1ccc(C(=O)N/C(=C\c2cccc([N+](=O)[O-])c2)c2nc3c4c(ccc3[nH]2)C(=O)c2ccccc2C4=O)cc1 | 15.5 µM (inactive) | > 100 µM (inactive) | 42.6 µM (inactive) | > 100 µM (inactive) | 12.7 µM (inactive) | 15 µM (inactive) | > 100 µM (inactive) | 25 µM (inactive) | 6.78 µM (inactive) | 30.3 µM (inactive) | 57.4 µM (inactive) | 13.6 µM (inactive) | 73.5 µM (inactive) | 14 µM (inactive) | > 100 µM (inactive) | –
2 | O=C(c1ccccc1)C(c1ccccc1)C1(O)C(=O)Nc2c(Cl)ccc(Cl)c21 (stereo unspecified) | 25.3 µM (inactive) | 22.2 µM (inactive) | 18.2 µM (inactive) | 30.8 µM (inactive) | 17.4 µM (inactive) | 3.73 µM (inactive) | 20.4 µM (inactive) | 19.4 µM (inactive) | 12.2 µM (inactive) | 18.7 µM (inactive) | 18.2 µM (inactive) | 30.3 µM (inactive) | 16.7 µM (inactive) | 25.8 µM (inactive) | 15.4 µM (inactive) | –
3 | CC(C)(C)NN=C1C(C)(C)C(=NNC(C)(C)C)C1(C)C | – | > 100 µM (inactive) | – | > 100 µM (inactive) | > 100 µM (inactive) | > 100 µM (inactive) | > 100 µM (inactive) | > 100 µM (inactive) | > 100 µM (inactive) | > 100 µM (inactive) | > 100 µM (inactive) | > 100 µM (inactive) | > 100 µM (inactive) | > 100 µM (inactive) | > 100 µM (inactive) | > 100 µM (inactive)
4 | COC(=O)N1[C@H]2Cc3c(OC)c(C)c(OC)c(OC)c3[C@@H]1/C(=C\c1cc(OC)c(OC)c(C)c1OC)N(Cc1ccccc1)C2=O | > 100 µM (inactive) | 13.8 µM (inactive) | 37.7 µM (inactive) | 8.51 µM (inactive) | 32.7 µM (inactive) | 6.7 µM (inactive) | > 100 µM (inactive) | 32.4 µM (inactive) | 20.9 µM (inactive) | > 100 µM (inactive) | 21.8 µM (inactive) | 58.9 µM (inactive) | – | 27.9 µM (inactive) | 23 µM (inactive) | 0.23 µM (active)
5 | N#C/C(=C/c1cccc(Oc2ccccc2)c1)c1ccccc1 | > 100 µM (inactive) | 55 µM (inactive) | > 100 µM (inactive) | > 100 µM (inactive) | – | > 100 µM (inactive) | 34.6 µM (inactive) | > 100 µM (inactive) | > 100 µM (inactive) | > 100 µM (inactive) | > 100 µM (inactive) | – | > 100 µM (inactive) | > 100 µM (inactive) | > 100 µM (inactive) | > 100 µM (inactive)
6 | O=C(Cc1ccccc1)NN1C(=O)C(Cl)C1c1ccc(O)cc1 (stereo unspecified) | – | > 100 µM (inactive) | > 100 µM (inactive) | > 100 µM (inactive) | > 100 µM (inactive) | – | > 100 µM (inactive) | > 100 µM (inactive) | > 100 µM (inactive) | > 100 µM (inactive) | > 100 µM (inactive) | > 100 µM (inactive) | > 100 µM (inactive) | > 100 µM (inactive) | > 100 µM (inactive) | > 100 µM (inactive)
7 | N/C(=N\N=C=C1C(=O)Nc2ccc(F)cc21)NO | > 100 µM (inactive) | > 100 µM (inactive) | 95.5 µM (inactive) | > 100 µM (inactive) | > 100 µM (inactive) | > 100 µM (inactive) | – | > 100 µM (inactive) | – | > 100 µM (inactive) | > 100 µM (inactive) | – | > 100 µM (inactive) | > 100 µM (inactive) | > 100 µM (inactive) | –
8 | C=CCC1([C@H](C)[C@@H](OC(C)=O)c2cc(OC)c(OC)c(OC)c2)C[C@@H](OC)CCC1=O (stereo partly specified) | – | 19.1 µM (inactive) | 26.2 µM (inactive) | – | 20.7 µM (inactive) | 25.5 µM (inactive) | – | 17 µM (inactive) | 10.8 µM (inactive) | 23.6 µM (inactive) | > 100 µM (inactive) | – | 13.7 µM (inactive) | 13.8 µM (inactive) | > 10 µM (inactive) | 22.5 µM (inactive)
9 | COC(=O)c1cc(Br)c(Br)n1C | > 100 µM (inactive) | > 100 µM (inactive) | 42.7 µM (inactive) | > 100 µM (inactive) | > 100 µM (inactive) | > 100 µM (inactive) | > 100 µM (inactive) | > 100 µM (inactive) | – | > 100 µM (inactive) | > 100 µM (inactive) | > 100 µM (inactive) | > 100 µM (inactive) | > 100 µM (inactive) | > 100 µM (inactive) | > 100 µM (inactive)
